Reference: patent US20190315823A1, “SMALL CATIONIC ANTI-BIOFILM AND IDR PEPTIDES” (priority 2013, published 2019)
Ends that are not written are not given here.

Legend:
[1] = tested on: methicillin resistant Staphylococcus aureus (MRSA) biofilm; conditions: approximate peptide concentration […] (around 3 μg/ml); compared to untreated samples
In short: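 Static biofilm assay: 1/100 dilutions of overnight cultures grown in BM2 medium (pH 7, glucose, Casamino Acids) or Luria Broth with peptide added at time zero. After 22–46 h, adherent biofilm was stained with crystal violet and read at 595 nm. Some peptides were also tested on K. pneumoniae under flow in a Bioflux system.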

[2] = tested on: LPS-stimulated human peripheral blood mononuclear cells (IL1-β); assay type: cell-based; conditions: Table 12, cells stimulated with 10 ng/ml LPS; for IL1β Production: LPS alone 1313 (HH2 derivatives), 1927 (1018 derivatives), 2455 (1002 and hybrid peptides) pg/ml
[3] = tested on: human peripheral blood mononuclear cells (MCP-1); test: SPOT-synthesized derivative screen: production of chemokine MCP-1; assay type: cell-based; conditions: Table 12, No LPS, human PBMC, peptide at ~18-24 μM; for MCP1: background subtracted 139 (HH2 derivatives), 170 (1018 derivatives), 242 (1002 and hybrid peptides) pg/ml
In short: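 PBMC from heparinized healthy-donor venous blood, Ficoll-separated, cultured at 0.75 to 1×10^6 cells/ml, 37 °C, 5% CO2, under the treatment regimens. MCP-1 in cell-free supernatants measured by capture ELISA.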

Substance | % Biofilm inhibition [1] | Fold change in IL1β relative to no peptide LPS stimulated cells [2] | IL1β Production [2] | Fold increase in MCP1 cf. untreated cells [3] | MCP1 [3]
1002-Q9: single substituted 1002 peptide (VQRWLIVWQIRK-NH2) [Peptide 1002-Q9] | 41% | 0.05 | 127 pg/mL | 7.2 | 1514.2 pg/mL
1002-A12: single substituted 1002 peptide (VQRWLIVWRIRA-NH2) [Peptide 1002-A12] | 37% | 0.05 | 127 pg/mL | 1.4 | 91.3 pg/mL
1018-A7: single substituted 1018 peptide (VRLIVAARIWRR-NH2) [Peptide 1018-A7] | 52% | 0.68 | 891 pg/mL | 0.5 | -88 pg/mL
HH2-L5: single substituted HH2 peptide (VQLRLRVAVIRA-NH2) | 58% | 0.88 | 1156 pg/mL | 1.6 | 97 pg/mL
1018-A11: single substituted 1018 peptide (VRLIVAVRIWAR-NH2) [Peptide 1018-A11] | 59% | 0.87 | 1148 pg/mL | 0.6 | -65 pg/mL
HH2-W10: single substituted HH2 peptide (VQLRIRVAVWRA-NH2) | 48% | 1.02 | 1344 pg/mL | 15 | 2448 pg/mL
1002-K9: single substituted 1002 peptide (VQRWLIVWKIRK-NH2) [Peptide 1002-K9] | 50% | 0.05 | 127 pg/mL | 1.6 | 143.9 pg/mL
1018-A4: single substituted 1018 peptide (VRLAVAVRIWRR-NH2) [Peptide 1018-A4] | 38% | 0.40 | 521 pg/mL | 0.5 | -88 pg/mL
HH2-L10: single substituted HH2 peptide (VQLRIRVAVLRA-NH2) | 63% | 1.04 | 1359 pg/mL | 21 | 3338 pg/mL
HH2-A7: single substituted HH2 peptide (VQLRIRAAVIRA-NH2) | 57% | 1.30 | 1713 pg/mL | 1.3 | 59 pg/mL
1002-G4: single substituted 1002 peptide (VQRGLIVWRIRK-NH2) [Peptide 1002-G4] | 42% | 0.29 | 723 pg/mL | 1.1 | 33.0 pg/mL
1002-K7: single substituted 1002 peptide (VQRWLIKWRIRK-NH2) [Peptide 1002-K7] | 28% | 0.12 | 302 pg/mL | 0.9 | -36.2 pg/mL
1002-W1: single substituted 1002 peptide (WQRWLIVWRIRK-NH2) [Peptide 1002-W1] | 76% | 0.05 | 127 pg/mL | 3.6 | 622.0 pg/mL
1018-V3: single substituted 1018 peptide (VRVIVAVRIWRR-NH2) [Peptide 1018-V3] | 76% | 0.22 | 295 pg/mL | 16 | 2550 pg/mL
1018-L7: single substituted 1018 peptide (VRLIVALRIWRR-NH2) [Peptide 1018-L7] | 72% | 0.10 | 132 pg/mL | 0.9 | -10 pg/mL
HH2-G2: single substituted HH2 peptide (VGLRIRVAVIRA-NH2) | 66% | 1.07 | 1400 pg/mL | 3.8 | 471 pg/mL
1018-W3: single substituted 1018 peptide (VRWIVAVRIWRR-NH2) [Peptide 1018-W3] | 66% | 0.10 | 127 pg/mL | 6.6 | 953 pg/mL
HH2-R5: single substituted HH2 peptide (VQLRRRVAVIRA-NH2) | 0% | 1.66 | 2186 pg/mL | 4.0 | 515 pg/mL
HH2-G11: single substituted HH2 peptide (VQLRIRVAVIGA-NH2) | 72% | 0.99 | 1303 pg/mL | 2.0 | 177 pg/mL
1018-A3: single substituted 1018 peptide (VRAIVAVRIWRR-NH2) [Peptide 1018-A3] | 49% | 0.57 | 748 pg/mL | 0.4 | -110 pg/mL
1002-L4: single substituted 1002 peptide (VQRLLIVWRIRK-NH2) [Peptide 1002-L4] | 33% | 0.12 | 283 pg/mL | 3.0 | 493.6 pg/mL
HH2-G10: single substituted HH2 peptide (VQLRIRVAVGRA-NH2) | 58% | 1.06 | 1391 pg/mL | 72 | 12063 pg/mL
1018-G2: single substituted 1018 peptide (VGLIVAVRIWRR-NH2) [Peptide 1018-G2] | 59% | 0.10 | 127 pg/mL | 2.6 | 267 pg/mL
HH2-K3: single substituted HH2 peptide (VQKRIRVAVIRA-NH2) | 14% | 1.34 | 1761 pg/mL | 11 | 1763 pg/mL
